Ends that are not written are not given here.
Tested on: reconstructed human epidermis (RHE)
Assay: Protein expression (in situ immunolabeling) in RHE stimulated with cytokines
Assay type: cell-based
Details: 3 PPM peptide, % of level in non treated RHE
Description: In the present study, the effects of a peptide on the expression of 7 proteins were assessed on a reconstructed human epidermis (RHE) model stimulated or not with a mix of cytokines (IL-17+OSM+TNF-α).
More precisely, effects of compounds were evaluated on the protein expression of markers involved in: • tight junctions (Occludin), • […] (Corneosdesmosin) • keratinocyte differentiation (keratin 10, involucrin, calmodulin-like5), • and lipid synthesis (Acyl-CoA synthetase and sulfotransferase 2B).
Reconstructed human epidermis (RHE) of 11 days old were prepared according to a derived method described by Poumay et al. (2004). These RHE were cultivated at 37° C. and 5% of CO2 in a specific maintenance medium.
The RHE were treated with assay medium containing or not (control) the test compounds or the JAK inhibitor I at 10 μM and incubated for 24 hours. After pre-incubation, assay medium and treatments were renewed and epidermises were stimulated with a cytokine mix (OSM+IL-17+TNF-α*) at 3 ng/ml and incubated for additional 48 hours. All experimental conditions were performed in n=3. *Oncostatin M (OSM)+Interleukin 17 (IL-17)+ Tumor necrosis factor alpha (TNF-α)
At the end of incubation, the supernatants were collected and the RHE were washed in phosphate buffered saline solution (PBS) for in situ immunolabeling.
After incubation, the RHE were snap-frozen in liquid isopentane/N2 and stored at −80° C. The transversal sections were carried out using a microtome (5 μm thickness, one slide per RHE, several sections per slide).
The sections were fixed with an acetone/methanol mix and dried. After PBS-milk 5% saturation, the sections were incubated with the specific primary antibody solutions. […] The sections were washed and then observed under epifluorescence microscopy.
After incubation, RHE were rinsed and fixed with formaldehyde solution. Fixed tissues were dehydrated in multiple baths with increasing concentration of ethanol and then embedded in paraffin. The transversal sections were carried out using a microtome (5 μm thickness) and stored at room temperature.
The sections were deparaffinized then the antigenic sites were retrieved. The sections were washed and incubated with hydrogen peroxide. The sections, once washed, were incubated with the primary antibody (anti-Calmodulin-like 5 or anti-SULT2B1). […] After peroxidase-conjugated streptavidine and peroxidase substrate addition, nuclei were counter-stained with a solution of haematoxylin. The sections were washed, mounted in aqueous medium and observed under transmitted-light microscopy.
Sections were observed using a NIKON E400 microscope. Images were captured with a NIKON DS-Ri1 and processed with NIS-Elements 3.10 software (3 pictures per replicate). The image analysis was performed by measuring the fluorescence intensity using Image J software.
Results were expressed in % of the level of expression of each protein maker in non treated RHE.

## YPLDLF [YPLDLF]
  Acyl-CoA synthetase protein expression level in RHE: 65%
  Calmodulin like 5 protein expression level in RHE: 100%
  Corneodesmosin protein expression level in RHE: 84%
  Involucrin protein expression level in RHE: 99%
  Keratin 10 protein expression level in RHE: 104%
  Occludin protein expression level in RHE: 97%
  Sulfotransferase 2B protein expression level in RHE: 100%

— patent US9107852B2, “Uses of agonists of delta opioid receptor in cosmetic and dermocosmetic field” (Induchem Holding AG, priority 2012, dated 2015)
